Measurements published in publication PMC12486458 (Journal of Enzyme Inhibition and Medicinal Chemistry, 2025).

System: U266 multiple myeloma cells
Assay: MTT assay
Assay type: cell-based
Settings: Homo sapiens, U-266, 72 h, read-out: U266 IC50

CC[C@@H]1C(=O)N(C)c2cnc(Nc3ccc(C(=O)NC4CCN(C)CC4)cc3OC)nc2N1C1CCCC1 [BI 2536]
IC50: 0.28 ± 0.03 µM
